The term pIC50 denotes the negative decadic logarithm of the IC50, by convention in mol/L.

In US8431593B2, “Heteroaryl amide derivatives” (H. Lundbeck A/S, priority 2006, dated 2013) one finds IC50 data, which are given here for 30 molecules.

pIC50: −log10 of the molar value.

One experiment concerns the target T1, P2X7 receptor (Homo sapiens, UniProt Q99572).
T1 construct: host or cells: SH-SY5Y
T1 sequence (Q99572 1-595): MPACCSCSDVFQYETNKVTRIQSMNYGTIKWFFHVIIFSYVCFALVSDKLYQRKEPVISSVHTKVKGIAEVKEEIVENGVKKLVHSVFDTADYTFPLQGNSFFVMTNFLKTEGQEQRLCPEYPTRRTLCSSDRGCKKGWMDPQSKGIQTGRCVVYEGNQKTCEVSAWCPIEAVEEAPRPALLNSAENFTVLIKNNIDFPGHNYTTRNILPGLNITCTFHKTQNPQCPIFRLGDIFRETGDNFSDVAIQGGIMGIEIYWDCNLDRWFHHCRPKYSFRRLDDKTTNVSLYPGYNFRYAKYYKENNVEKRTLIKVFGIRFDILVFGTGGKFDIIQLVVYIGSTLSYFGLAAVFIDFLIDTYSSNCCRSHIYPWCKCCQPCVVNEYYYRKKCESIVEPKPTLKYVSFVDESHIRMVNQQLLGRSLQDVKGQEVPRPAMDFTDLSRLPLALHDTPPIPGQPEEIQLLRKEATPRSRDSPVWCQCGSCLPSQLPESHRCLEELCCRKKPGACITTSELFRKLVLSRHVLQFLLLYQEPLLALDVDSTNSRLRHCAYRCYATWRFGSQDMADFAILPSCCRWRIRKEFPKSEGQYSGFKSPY
The experiment can be described thus: P2X7 calcium mobilization assay, high throughput, antagonist activity (Example 4A).
Settings: not given
The class given is cell-based. How it is done:
One day prior to the experiment, cells are plated at a density of 100,000 cells/well in a 96 well black/clear TC plate (Corning® Costar®, Sigma-Aldrich Co., St. Louis, Mo.). […] After one hour dye incubation, wells are rinsed once with 50 μL assay solution, and are then incubated for an hour at room temperature with 100 μL assay solution containing the test compound. […] After the one hour incubation, plates are transferred to a FLIPR^TETRA instrument (Molecular Devices, Sunnyvale, Calif.) for calcium mobilization analysis.
First, the average maximum relative fluorescent unit (RFU) response from the negative control wells (no agonist) is subtracted from the maximum response detected for each of the other experimental wells. Second, average maximum RFU response is calculated for the positive control wells (agonist wells).
On the technique in general: Calcium assays in cells follow changes in intracellular calcium, usually with a dye or a luminescent sensor.
For the molecule `CCOC(=O)Cc1cn2c(C(=O)NCC34CC5CC(CC(C5)C3)C4)cccc2n1` [Compound 4, ethyl {5-[(adamantan-1-ylmethyl)carbamoyl]imi-dazo[1,2-a]pyridin-2-yl}acetate], the pIC50 is over 5.70.
`O=C(NCC12CC3CC(CC(C3)C1)C2)c1cccc2nc(CCO)cn12` [Compound 6, N-(adamantan-1-ylmethyl)-2-(2-hydroxyethyl)imi-dazo[1,2-a]pyridine-5-carboxamide]: the negative-log IC50 (pIC50) was over 5.70.
As for `O=C(NCCO)c1cn2c(C(=O)NCC34CC5CC(CC(C5)C3)C4)cccc2n1` [Compound 8, 5-N-(adamantan-1-ylmethyl)--(2-hydroxyethyl)imi-dazo[1,2-a]pyridine-2,5-dicarboxamide], the pIC50 was over 5.70.
On to `CC(C)CNCc1cn2c(C(=O)NCC34CC5CC(CC(C5)C3)C4)cccc2n1` [Compound 12, N-(adamantan-1-ylmethyl)-2-[(isobutyl-amino)methyl]imi-dazo[1,2-a]pyridine-5-carboxamide], for which the pIC50 was over 5.70.
With `O=C(NCC12CC3CC(CC(C3)C1)C2)c1cccc2nc(CN3CCN(CCO)CC3)cn12` [Compound 13, N-(adamantan-1-ylmethyl)-2-{[4-(2-hydroxyethyl)piperazin-1-yl]methyl}imi-dazo[1,2-a]pyridine-5-carboxamide], the negative logarithm of the IC50 (pIC50) is over 5.70.
Take `O=C(O)Cc1cn2c(C(=O)NCC34CC5CC(CC(C5)C3)C4)cccc2n1` [Compound 16, {5-[(adamantan-1-ylmethyl)carbamoyl]imi-dazo[1,2-a]pyridin-2-yl}acetic acid]: the pIC50 is over 5.70.
Take `O=C(Cc1cn2c(C(=O)NCC34CC5CC(CC(C5)C3)C4)cccc2n1)NCCCO` [Compound 27, N-(adamantan-1-ylmethyl)-2-{2-[(3-hydroxypropyl)amino]-2-oxoethyl}imi-dazo[1,2-a]pyridine-5-carboxamide]: the negative logarithm of the IC50 (pIC50) was over 5.70.
Same read-out and setting: the result for `C[C@@H](O)CNC(=O)Cc1cn2c(C(=O)NCC34CC5CC(CC(C5)C3)C4)cccc2n1` [Compound 28, N-(adamantan-1-ylmethyl)-2-(2-{[(2R)-2-hydroxy-propyl]amino}-2-oxoethyl)imi-dazo[1,2-a]pyridine-5-carboxamide] reads over 5.70.
Turning to `C[C@H](O)CNC(=O)Cc1cn2c(C(=O)NCC34CC5CC(CC(C5)C3)C4)cccc2n1` [Compound 29, N-(adamantan-1-ylmethyl)-2-(2-{[(2S)-2-hydroxy-propyl]amino}-2-oxoethyl)imi-dazo[1,2-a]pyridine-5-carboxamide], the negative logarithm of the IC50 (pIC50) was over 5.70.
The same measure, in the same setting: the result for `CCC(O)CNC(=O)Cc1cn2c(C(=O)NCC34CC5CC(CC(C5)C3)C4)cccc2n1` (stereo not drawn) [Compound 30, N-(adamantan-1-ylmethyl)-2-{2-[(2-hydroxy-butyl)amino]-2-oxoethyl}imi-dazo[1,2-a]pyridine-5-carboxamide] reads over 5.70.

Still in this experiment, the particulars now being: SH-SY5Y cells; 50% decrease in fluorescence response to 80 μM BzATP; read-out: IC50.
Take `O=C(NCC12CC3CC(CC(C3)C1)C2)c1cccc2nc(CN3CCNCC3)cn12` [Compound 5, N-(adamantan-1-ylmethyl)-2-(piperazin-1-ylmethyl)imidazo[1,2-a]pyridine-5-carboxamide]: the pIC50 was over 5.70.
For the molecule `CCOC(=O)c1cn2c(C(=O)NCC34CC5CC(CC(C5)C3)C4)c(Cl)ccc2n1` [Compound 7, 5-[(adamantan-1-ylmethyl)-carbamoyl]-6-chloro-imidazo[1,2-a]pyridine-2-carboxylic acid ethyl ester], the negative logarithm of the IC50 (pIC50) was over 5.70.
As for `CN(CCO)C(=O)c1cn2c(C(=O)NCC34CC5CC(CC(C5)C3)C4)cccc2n1` [Compound 9, 5-N-(adamantan-1-ylmethyl)--(2-hydroxyethyl)-- methylimidazo[1,2-a]pyridine-2,5-dicarboxamide], the pIC50 is over 5.70.
Consider `CCOC(=O)c1nc2cccc(C(=O)NCC34CC5CC(CC(C5)C3)C4)n2c1Cl` [Compound 15, ethyl 5-[(adamantan-1-ylmethyl)carbamoyl]-3-chloroimidazo[1,2-a]pyridine-2-carboxylate], for which the negative-log IC50 (pIC50) was over 5.70.
For `CCNC(=O)Cc1cn2c(C(=O)NCC34CC5CC(CC(C5)C3)C4)cccc2n1` [Compound 17, N-(adamantan-1-ylmethyl)-2-[2-(ethylamino)-2-oxoethyl]imidazo[1,2-a]pyridine-5-carboxamide], the negative-log IC50 (pIC50) is over 5.70.
The same measure, in the same setting: next, `CC(C)CNC(=O)Cc1cn2c(C(=O)NCC34CC5CC(CC(C5)C3)C4)cccc2n1` [Compound 18, N-(adamantan-1-ylmethyl)-2-[2 (isobutylamino)-2-oxoethyl]imidazo[1,2-a]pyridine-5-carboxamide]: over 5.70.
Turning to `CN(C)C(=O)CNC(=O)Cc1cn2c(C(=O)NCC34CC5CC(CC(C5)C3)C4)cccc2n1` [Compound 20, N-(adamantan-1-ylmethyl)-2-(2-{[2-(dimethylamino)-2-oxoethyl]amino}-2-oxoethyl)imidazo[1,2-a]pyridine-5-carboxamide], the pIC50 was over 5.70.
For the molecule `NC(=O)CNC(=O)Cc1cn2c(C(=O)NCC34CC5CC(CC(C5)C3)C4)cccc2n1` [Compound 24, N-(adamantan-1-ylmethyl)-2-{2-[(2-amino-2-oxoethyl)amino]-2-oxoethyl}imidazo[1,2-a]pyridine-5-carboxamide], the negative-log IC50 (pIC50) is over 5.70.
Regarding `CC(NC(=O)Cc1cn2c(C(=O)NCC34CC5CC(CC(C5)C3)C4)cccc2n1)C(N)=O` (stereo not drawn) [Compound 25, N-(adamantan-1-ylmethyl)-2-{2-[(2-amino-1-methyl-2-oxoethyl)amino]-2-oxoethyl}imidazo[1,2-a]pyridine-5-carboxamide], the pIC50 is over 5.70.
Turning to `O=C(Cc1cn2c(C(=O)NCC34CC5CC(CC(C5)C3)C4)cccc2n1)NCCO` [Compound 26, N-(adamantan-1-ylmethyl)-2-{2-[(2-hydroxyethyl)amino]-2-oxoethyl}imidazo[1,2-a]pyridine-5-carboxamide], the negative-log IC50 (pIC50) is over 5.70.
The same measure, in the same setting: the result for `CC(O)CCNC(=O)Cc1cn2c(C(=O)NCC34CC5CC(CC(C5)C3)C4)cccc2n1` (stereo not drawn) [Compound 31, N-(adamantan-1-ylmethyl)-2-{2-[(3-hydroxybutyl)amino]-2-oxoethyl}imidazo[1,2-a]pyridine-5-carboxamide] reads over 5.70; that for `CC(C)[C@H](CO)NC(=O)Cc1cn2c(C(=O)NCC34CC5CC(CC(C5)C3)C4)cccc2n1` [Compound 32, N-(adamantan-1-ylmethyl)-2-(2-{[(1R)-1-(hydroxymethyl)-2-methylpropyl]amino}-2-oxoethyl)imidazo[1,2-a]pyridine-5-carboxamide], over 5.70.
For `CC(O)CNC(=O)Cc1cn2c(C(=O)NCC34CC5CC(CC(C5)C3)C4)cccc2n1` (stereo not drawn) [Compound 33, N-(adamantan-1-ylmethyl)-2-{2-[(2-hydroxypropyl)amino]-2-oxoethyl}imidazo[1,2-a]pyridine-5-carboxamide], the pIC50 was over 5.70.
On the same count and under the same terms, next, `COCC1CCN(C(=O)Cc2cn3c(C(=O)NCC45CC6CC(CC(C6)C4)C5)cccc3n2)CC1` [Compound 34, N-(adamantan-1-ylmethyl)-2-{2-[4-(methoxy-methyl)piperidin-1-yl]-2-oxoethyl}imidazo[1,2-a]pyridine-5-carboxamide]: over 5.70; `COCCC1CCN(C(=O)Cc2cn3c(C(=O)NCC45CC6CC(CC(C6)C4)C5)cccc3n2)CC1` [Compound 35, N-(adamantan-1-ylmethyl)-2-{2-[4-(2-methoxyethyl)piperidin-1-yl]-2-oxoethyl}imidazo[1,2-a]pyridine-5-carboxamide]: over 5.70; `CN(C(=O)Cc1cn2c(C(=O)NCC34CC5CC(CC(C5)C3)C4)cccc2n1)C1CCOC1` (stereo not drawn) [Compound 37, N-(adamantan-1-ylmethyl)-2-{2-[methyl(tetrahydrofuran-3-yl)amino]-2-oxoethyl}imidazo[1,2-a]pyridine-5-carboxamide]: over 5.70.
On the same count and under the same terms, the result for `CN1CCC(N(C)C(=O)Cc2cn3c(C(=O)NCC45CC6CC(CC(C6)C4)C5)cccc3n2)C1` (stereo not drawn) [Compound 39, N-(adamantan-1-ylmethyl)-2-{2-[methyl(1-methylpyrrolidin-3-yl)amino]-2-oxoethyl}imidazo[1,2-a]pyridine-5-carboxamide] reads over 5.70; that for `COC1CCN(C(=O)Cc2cn3c(C(=O)NCC45CC6CC(CC(C6)C4)C5)cccc3n2)CC1` [Compound 42, N-(adamantan-1-ylmethyl)-2-[2-(4-methoxypiperidin-1-yl)-2-oxoethyl]imidazo[1,2-a]pyridine-5-carboxamide], over 5.70; that for `CS(=O)(=O)C1CCN(C(=O)Cc2cn3c(C(=O)NCC45CC6CC(CC(C6)C4)C5)cccc3n2)CC1` [Compound 43], over 5.70.
`CS(=O)(=O)N1CCN(C(=O)Cc2cn3c(C(=O)NCC45CC6CC(CC(C6)C4)C5)cccc3n2)CC1` [Compound 44, N-(adamantan-1-ylmethyl)-2-{2-[4-(methylsulfonyl)piperazin-1-yl]-2-oxoethyl}imidazo[1,2-a]pyridine-5-carboxamide]: the pIC50 is over 5.70.
